Reference: patent publication US20230140216A1, “COMBINATION THERAPY FOR TREATING MPS1” (GAIN THERAPEUTICS SA, priority 2020, published 2023)

Assays:
[1] = molecular target: T1, Recombinant human α-L-iduronidase protein (Homo sapiens, UniProt P35475); assay: Denaturation prevention assay in neutral pH buffer; assay type: biochemical; conditions: 30 µM compound, pH 7, 37° C.
T1 construct: Ala26-Pro653 with a C-terminal 10_His tag; 10xHis (C); host or cells: HEK293f (stated in b1366 for the UAB protein)
T1 sequence (P35475 26-653): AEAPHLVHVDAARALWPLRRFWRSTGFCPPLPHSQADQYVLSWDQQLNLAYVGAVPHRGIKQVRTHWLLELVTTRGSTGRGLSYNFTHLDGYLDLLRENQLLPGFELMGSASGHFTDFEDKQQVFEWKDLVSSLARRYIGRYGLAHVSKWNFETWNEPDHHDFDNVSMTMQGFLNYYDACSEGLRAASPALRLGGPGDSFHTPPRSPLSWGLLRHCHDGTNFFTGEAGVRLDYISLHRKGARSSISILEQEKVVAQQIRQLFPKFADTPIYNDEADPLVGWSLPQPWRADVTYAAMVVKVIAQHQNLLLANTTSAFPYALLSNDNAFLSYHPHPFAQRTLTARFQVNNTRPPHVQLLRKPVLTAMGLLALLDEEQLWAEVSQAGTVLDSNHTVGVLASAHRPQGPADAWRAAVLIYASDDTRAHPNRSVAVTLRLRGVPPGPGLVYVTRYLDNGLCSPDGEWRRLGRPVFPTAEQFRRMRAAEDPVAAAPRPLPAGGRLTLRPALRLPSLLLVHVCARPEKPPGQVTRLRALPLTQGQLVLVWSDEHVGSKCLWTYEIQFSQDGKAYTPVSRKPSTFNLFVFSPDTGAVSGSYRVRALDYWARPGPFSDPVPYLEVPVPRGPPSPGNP
Protocol: The capacity of Compounds of the Disclosure to stabilize α-L-iduronidase in neutral pH buffer was assessed using the denaturation prevention assay.
Briefly, recombinant human α-L-iduronidase protein (obtained in the Institute of Biotechnology and Biomedicine in the UAB, Bellaterra, Spain) was combined at a final concentration of 1 µM with 5X of SYPRO Orange and 30 µM of the corresponding compound in a final reaction volume of 25 µL in 100 mM Hepes 20 mM MgCl2 pH 7 buffer. Reactions were incubated at 37° C. and SYPRO Orange fluorescence intensity was monitored at the indicated time points using Glomax® Discover Microplate Reader from Promega (Madison, WI, USA).
The compound referred to as Compound A throughout this specification is the compound of Example 8 described above. […] (T=37° C.).

[2] = molecular target: T2, Aldurazyme (laronidase) IDUA activity in plasma (Homo sapiens, UniProt P35475); assay: IDUA assay in plasma after i.v. Aldurazyme with or without compound; assay type: in vivo, C57BL/6 male mice; conditions: mice, compound 5, 10, 20 mg/kg i.v. + Aldurazyme 1.2 mg/kg i.v.
T2 construct: purchased Aldurazyme; host or cells: administered i.v. to C57BL/6 male mice
T2 sequence (P35475 26-653 limits assumed): T1 sequence (P35475 26-653)
Protocol: (§1) Evaluation of IDUA activity in mouse bone joint cartilage samples obtained from BIO-PCY-19-025 study, where C57BL/6 male mice were administered with 1.2 mg/kg Aldurazyme (i.v. bolus administration) in the presence and absence of Compound A.
(§2) Groups Details: • G1: Vehicle 2 +Aldurazyme (1.2 mg/kg,i.v.,) QD×1(n=6) [vehicle 2:NMP (5%) + Solutol HS-15 (5%) + Normal saline (45%) + PEG-400 (45%)]; • G2: Compound A (5 mg/kg, i.v.) + Aldurazyme (1.2 mg/kg, i.v.) QD x 1 (n=6); • G3: Compound A (10 mg/kg, i.v.) + Aldurazyme (1.2 mg/kg, i.v.) QD x 1 (n=6); • G4: Compound A (20 mg/kg, i.v.) + Aldurazyme (1.2 mg/kg, i.v.) QD x 1 (n=6); and • G5: Naïve Control (n=6).
Plasma samples from mice were collected at indicated time points. Plasma samples were diluted in formate buffer and total protein was estimated using Bradford reagent. 25 µl of tissue homogenate and plasma samples were added to 25 µl of 0.18 mM of 4 MUI substrate and incubated at 37° C. for 30 min. Reaction was terminated using 200 µl of stop solution (0.3 M Glycine and 0.2 M sodium carbonate, pH 10.4). Plate was read at excitation 355 nm and emission 460 nm. […]
(§3) IDUA activity was assessed from 4-MU standard curve. […] Final IDUA enzyme activity was expressed as nmols/mg of protein/hr. Data was analyzed using GraphPad prism software with one way ANOVA followed by Dunnett’s comparison test. […]

[3] = molecular target: T3, Aldurazyme (laronidase) IDUA activity in bone joint cartilage (Homo sapiens, UniProt P35475); assay: IDUA assay in bone joint cartilage after i.v. Aldurazyme with or without compound; assay type: in vivo, C57BL/6 male mice; conditions: mice, compound i.v. + Aldurazyme 1.2 mg/kg i.v.
T3 construct: purchased Aldurazyme; host or cells: administered i.v. to C57BL/6 male mice
T3 sequence (P35475 26-653 limits assumed): T1 sequence (P35475 26-653)
Protocol: as §1, §2
Bone joint cartilage samples from mice were collected at indicated time points. Tissues were homogenized in RIPA buffer, protein was extracted was diluted in water. Total protein was estimated using Bradford reagent. 25 µl of tissue homogenate and plasma samples were added to 25 µl of 0.18 mM of 4 MUI substrate and incubated at 37° C. for 30 min. Reaction was terminated using 200 µl of stop solution (0.3 M Glycine and 0.2 M sodium carbonate, pH 10.4). Plate was read at excitation 355 nm and emission 460 nm. […]
as §3

For `CCN(CC(=O)Nc1c(Cl)cccc1Cl)Cc1nc2ccsc2c(=O)[nH]1` [Compound A], the “prevention of pH-induced IDUA denaturation” value [1] was “slows down pH-induced denaturation”, the “plasma levels / PK profile of Laronidase” value [2] was “increasing its plasma levels in a dose-dependent manner” and the “IDUA enzymatic activity in bone joint cartilage” value [3] was “increases IDUA enzymatic activity in a panel of tissues”.
